Test results taken from US6034251A, “Phenyl-alkyl-imidazoles” (Schering Corporation, priority 1998, dated 2000).

Target: T1, H3 receptors (Cavia porcellus, UniProt Q9JI35)
T1 construct: The source of the H3 receptors in this experiment was guinea pig brain; from tissue; host or cells: guinea pig brain membranes
Test: H3 Receptor Binding Assay
Conditions: guinea pig brain membranes; 3 nM [3H]R-α-methylhistamine or 3 nM [3H]Nα-methylhistamine; 50 mM Tris pH 7.5, 30° C., 30 min
Protocol: The source of the H3 receptors in this experiment was guinea pig brain. The animals weighed 400-600 g. The brain tissue was homogenized using a Polytron in a solution of 50 mM Tris, pH 7.5. The final concentration of tissue in the homogenization buffer was 10% w/v. The homogenates were centrifuged at 1,000×g for 10 min. in order to remove clumps of tissue and debris. The resulting supernatants were then centrifuged at 50,000×g for 20 min. in order to sediment the membranes, which were next washed three times in homogenization buffer (50,000×g for 20 min. each). The membranes were frozen and stored at -70° C. until needed.
All compounds to be tested were dissolved in DMSO and then diluted into the binding buffer (50 mM Tris, pH 7.5) such that the final concentration was 2 μg/ml with 0.1% DMSO. Membranes were then added (400 μg of protein) to the reaction tubes. The reaction was started by the addition of 3 nM [^3 H]R-α-methylhistamine (8.8 Ci/mmol) or 3 nM [^3 H]N^α -methylhistamine (80 Ci/mmol) and continued under incubation at 30° C. for 30 min. Bound ligand was separated from unbound ligand by filtration, and the amount of radioactive ligand bound to the membranes was quantitated by liquid scintillation spectrometry. All incubations were performed in duplicate and the standard error was always less than 10%. Compounds that inhibited more than 70% of the specific binding of radioactive ligand to the receptor were serially diluted to determine a Ki (nM).

T1 sequence (Q9JI35 whole entry): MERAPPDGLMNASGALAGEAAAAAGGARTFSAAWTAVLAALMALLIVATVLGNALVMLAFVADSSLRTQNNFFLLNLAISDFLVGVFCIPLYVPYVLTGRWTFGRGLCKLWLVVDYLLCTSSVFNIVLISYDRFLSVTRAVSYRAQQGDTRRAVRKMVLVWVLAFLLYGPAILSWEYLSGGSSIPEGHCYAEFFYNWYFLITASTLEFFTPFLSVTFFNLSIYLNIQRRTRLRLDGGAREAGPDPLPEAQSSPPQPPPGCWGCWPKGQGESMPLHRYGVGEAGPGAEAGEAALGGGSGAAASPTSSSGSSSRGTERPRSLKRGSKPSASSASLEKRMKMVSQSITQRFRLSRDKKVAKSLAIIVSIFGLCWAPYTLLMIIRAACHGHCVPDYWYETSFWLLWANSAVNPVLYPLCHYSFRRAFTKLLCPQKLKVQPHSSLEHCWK

SMILES | Ki [µM]
O=C(/C=C/c1ccc(Cc2c[nH]cn2)cc1)Nc1ccc(Cl)cc1 [Compound 1] | 0.002
O=C(/C=C/c1ccc(Cc2c[nH]cn2)cc1)NCc1ccc(Cl)cc1 [Compound 2] | 0.023
O=C(/C=C/c1ccc(Cc2c[nH]cn2)cc1)NCCc1ccc(Cl)cc1 [Compound 3] | 0.007
CN(C(=O)/C=C/c1ccc(Cc2c[nH]cn2)cc1)c1ccc(Cl)cc1 [Compound 4] | 0.045
CN(CCc1ccc(Cl)cc1)C(=O)/C=C/c1ccc(Cc2c[nH]cn2)cc1 [Compound 5] | 0.035
O=C(/C=C/c1ccc(Cc2c[nH]cn2)cc1)Nc1ccccc1 [Compound 6] | 0.002
O=C(/C=C/c1ccc(Cc2c[nH]cn2)cc1)NC1CCCCC1 [Compound 7] | 0.026
O=C(/C=C/c1ccc(Cc2c[nH]cn2)cc1)NCCc1cccc(Cl)c1 [Compound 8] | 0.011
CC(Cc1ccc(Cl)cc1)NC(=O)/C=C/c1ccc(Cc2c[nH]cn2)cc1 (stereo not drawn) [Compound 9] | 0.01
CC(CNC(=O)/C=C/c1ccc(Cc2c[nH]cn2)cc1)c1ccccc1 (stereo not drawn) [Compound 10] | 0.019
COc1ccc(CCNC(=O)/C=C/c2ccc(Cc3c[nH]cn3)cc2)cc1 [Compound 11] | 0.007
O=C(/C=C/c1ccc(Cc2c[nH]cn2)cc1)NCCc1c[nH]c2ccccc12 [Compound 12] | 0.045
Cn1cnc(Cc2ccc(/C=C/C(=O)Nc3ccc(Cl)cc3)cc2)c1 [Compound 13] | 0.27
O=C(/C=C/c1ccc(Cc2c[nH]cn2)cc1)NCCc1ccsc1 [Compound 15] | 0.012
O=C(/C=C/c1ccc(Cc2c[nH]cn2)cc1)NCCc1cccc(F)c1 [Compound 16] | 0.01
O=C(/C=C/c1ccc(Cc2c[nH]cn2)cc1)NCCc1cccnc1 [Compound 17] | 0.19
O=C(/C=C/c1ccc(Cc2c[nH]cn2)cc1)NCCc1ccccc1F [Compound 18] | 0.01
O=C(/C=C/c1ccc(Cc2c[nH]cn2)cc1)NCCc1ccccc1Cl [Compound 19] | 0.012
O=C(/C=C/c1ccc(Cc2c[nH]cn2)cc1)NCCCN1CCCC1 [Compound 20] | 0.58

SMILES | Ki [µM]
O=C(/C=C/c1ccc(Cc2c[nH]cn2)cc1)NCc1ccco1 [Compound 21] | 0.11
Cc1ccc(CCNC(=O)/C=C/c2ccc(Cc3c[nH]cn3)cc2)cc1 [Compound 22] | 0.006
CC(CCc1ccccc1)NC(=O)/C=C/c1ccc(Cc2c[nH]cn2)cc1 (stereo not drawn) [Compound 23] | 0.037
O=C(/C=C/c1ccc(Cc2c[nH]cn2)cc1)NC1CCCc2ccccc21 (stereo not drawn) [Compound 24] | 0.22
O=C(/C=C/c1ccc(Cc2c[nH]cn2)cc1)c1ccc(Cl)cc1 [Compound 25] | 0.4
O=C(/C=C/c1ccc(Cc2c[nH]cn2)cc1)NCc1ccc2ccccc2c1 [Compound 26] | 0.2
CN1CCCC1CCNC(=O)/C=C/c1ccc(Cc2c[nH]cn2)cc1 (stereo not drawn) [Compound 27] | 1
O=C(/C=C/c1ccc(Cc2c[nH]cn2)cc1)NCCc1ccc(Cl)cc1Cl [Compound 28] | 0.036
O=C(/C=C/c1ccc(Cc2c[nH]cn2)cc1)NCCc1ccccc1 [Compound 29] | 0.017
O=C(/C=C/c1ccc(Cc2c[nH]cn2)cc1)Nc1cc(Cl)cc(Cl)c1 [Compound 30] | 0.012
O=C(/C=C/c1ccc(Cc2c[nH]cn2)cc1)Nc1cccc(Cl)c1 [Compound 31] | 0.004
N#Cc1cccc(NC(=O)/C=C/c2ccc(Cc3c[nH]cn3)cc2)c1 [Compound 32] | 0.004
COc1cccc(NC(=O)/C=C/c2ccc(Cc3c[nH]cn3)cc2)c1 [Compound 33] | 0.003
Cc1cc(C)cc(NC(=O)/C=C/c2ccc(Cc3c[nH]cn3)cc2)c1 [Compound 34] | 0.002
O=C(/C=C/c1ccc(Cc2c[nH]cn2)cc1)Nc1cccc(F)c1 [Compound 35] | 0.001
O=C(/C=C/c1ccc(Cc2c[nH]cn2)cc1)Nc1ccc(F)cc1 [Compound 36] | 0.005
O=C(/C=C/c1ccc(Cc2c[nH]cn2)cc1)Nc1cccc(OC(F)(F)F)c1 [Compound 37] | 0.008
O=C(/C=C/c1ccc(Cc2c[nH]cn2)cc1)Nc1ccc(OC(F)(F)F)cc1 [Compound 38] | 0.01

Tested on: histamine H3 receptor
Test: not given
Conditions: mice, electrically induced convulsions; cited from earlier work

SMILES | duration of each phase of convulsion | electroconvulsive threshold
S=C(NC1CCCCC1)N1CCC(c2cnc[nH]2)CC1 [thioperamide] | decreased | raised
